Assay results: PubChem BioAssay AID226 (DTP/NCI, 2004)
Where “and” joins values, the source holds several entries; their conditions need not be identical. Equal entries are not always repeated. Toxic doses and inconclusive results are not listed. How the source made its calls: active means survival T/C of 150% or more; inactive means T/C below 125% in these data.

System: B6C3F1 mice, intracerebral ependymoblastoma, median survival T/C
Experiment: NCI In Vivo Anticancer Drug Screen. Data for tumor model Ependymoblastoma (intracerebral) in B6C3F1 mice
Settings: endpoint: median survival time, higher = longer survival
Experimental: The antitumor activity of compounds was measured in mice bearing transplantable tumors. Survival or tumor size were measured and the results are expressed as the measurement made in the treated group (T) divided by the measurement made in the vehicle treated control group (C). The tumor model used in this assay is Ependymoblastoma (intracerebral) in B6C3F1 mice

[1] = dose: 37.5 mg/kg/injection, schedule: Q01DX005 (ip), vehicle: Klucel (hydroxypropylcellulose) (HPC)
[2] = dose: 75.0 mg/kg/injection, schedule: Q01DX005 (ip), vehicle: Klucel (hydroxypropylcellulose) (HPC)
[3] = dose: 150.0 mg/kg/injection, schedule: Q01DX005 (ip), vehicle: Klucel (hydroxypropylcellulose) (HPC)
[4] = dose: 8.0 mg/kg/injection, schedule: Q01DX005 (ip), vehicle: saline
[5] = dose: 16.0 mg/kg/injection, schedule: Q01DX005 (ip), vehicle: saline
[6] = dose: 32.0 mg/kg/injection, schedule: Q01DX005 (ip), vehicle: saline
[7] = dose: 64.0 mg/kg/injection, schedule: Q01DX005 (ip), vehicle: saline
[8] = dose: 128.0 mg/kg/injection, schedule: Q01DX005 (ip), vehicle: saline

Measured: T/C

CC(=O)O[C@H]1C(=O)[C@@]2(C)[C@H]([C@H](OC(=O)c3ccccc3)[C@]3(O)C[C@H](OC(=O)[C@H](O)[C@@H](NC(=O)c4ccccc4)c4ccccc4)C(C)=C1C3(C)C)[C@]1(OC(C)=O)CO[C@@H]1C[C@@H]2O
inactive: dose: 2.5 mg/kg/injection, schedule: Q01DX005 (ip), vehicle: Klucel (hydroxypropylcellulose) (HPC) 107 % of control | dose: 5.0 mg/kg/injection, schedule: Q01DX005 (ip), vehicle: Klucel (hydroxypropylcellulose) (HPC) 101 % of control | dose: 10.0 mg/kg/injection, schedule: Q01DX005 (ip), vehicle: Klucel (hydroxypropylcellulose) (HPC) 91 % of control and 106 % of control | dose: 20.0 mg/kg/injection, schedule: Q01DX005 (ip), vehicle: Klucel (hydroxypropylcellulose) (HPC) 91 % of control

CCCS(=O)CC1NC(=O)NC1=O (stereo unspecified)
inactive: dose: 9.38 mg/kg/injection, schedule: Q01DX005 (ip), vehicle: Klucel (hydroxypropylcellulose) (HPC) 101 % of control | dose: 18.75 mg/kg/injection, schedule: Q01DX005 (ip), vehicle: Klucel (hydroxypropylcellulose) (HPC) 98 % of control | [1] 109 % of control | [2] 106 % of control | [3] 98 % of control

NC(=S)c1cn(C2OC(CO)C(O)C2O)c2ncnc(N)c12 (stereo unspecified)
inactive: dose: 1.88 mg/kg/injection, schedule: Q01DX005 (ip), vehicle: suspension in saline 94 % of control | dose: 3.75 mg/kg/injection, schedule: Q01DX005 (ip), vehicle: suspension in saline 97 % of control | dose: 7.5 mg/kg/injection, schedule: Q01DX005 (ip), vehicle: suspension in saline 108 % of control

CCC(C)Sc1nc(N)nc2c1ncn2C1OC(CO)C(O)C1O (stereo unspecified)
inactive: [1] 97 % of control and 119 % of control | [2] 113 % of control and 116 % of control | [3] 115 % of control | dose: 300.0 mg/kg/injection, schedule: Q01DX005 (ip), vehicle: Klucel (hydroxypropylcellulose) (HPC) 95 % of control and 113 % of control

CCCC(=O)OCC1OC(n2cnc3c(=S)nc[nH]c32)C(OC(=O)CCC)C1OC(=O)CCC (stereo unspecified)
inactive: dose: 25.0 mg/kg/injection, schedule: Q01DX005 (ip), vehicle: saline with Tween-80 103 % of control | dose: 50.0 mg/kg/injection, schedule: Q01DX005 (ip), vehicle: saline with Tween-80 105 % of control

Nc1ncnc2c1ncn2C1OC(COP(=O)(O)O)C(O)C1O (stereo unspecified)
inactive: dose: 25.0 mg/kg/injection, schedule: Q01DX005 (ip), vehicle: saline 100 % of control | dose: 50.0 mg/kg/injection, schedule: Q01DX005 (ip), vehicle: saline 106 % of control and 107 % of control | dose: 100.0 mg/kg/injection, schedule: Q01DX005 (ip), vehicle: saline 105 % of control and 112 % of control | dose: 200.0 mg/kg/injection, schedule: Q01DX005 (ip), vehicle: saline 107 % of control and 109 % of control | dose: 400.0 mg/kg/injection, schedule: Q01DX005 (ip), vehicle: saline 106 % of control and 112 % of control | dose: 800.0 mg/kg/injection, schedule: Q01DX005 (ip), vehicle: saline 117 % of control

NC(CSC(c1ccccc1)(c1ccccc1)c1ccccc1)C(=O)O (stereo unspecified)
inactive: dose: 32.0 mg/kg/injection, schedule: Q01DX005 (ip), vehicle: Klucel (hydroxypropylcellulose) (HPC) 107 % of control | dose: 64.0 mg/kg/injection, schedule: Q01DX005 (ip), vehicle: Klucel (hydroxypropylcellulose) (HPC) 107 % of control | dose: 512.0 mg/kg/injection, schedule: Q01DX001 (ip), vehicle: Klucel (hydroxypropylcellulose) (HPC) 108 % of control | dose: 516.0 mg/kg/injection, schedule: Q01DX001 (ip), vehicle: Klucel (hydroxypropylcellulose) (HPC) 86 % of control

CN=NNc1nc[nH]c1C(N)=O
inactive: [4] 99 % of control | [5] 106 % of control | [6] 110 % of control | [7] 123 % of control

COc1cc(NS(C)(=O)=O)ccc1Nc1c2ccccc2nc2ccccc12
inactive: dose: 1.0 mg/kg/injection, schedule: Q01DX005 (ip), vehicle: Klucel (hydroxypropylcellulose) (HPC) 110 % of control | dose: 1.0 mg/kg/injection, schedule: Q01DX005 (ip), vehicle: saline 103 % of control and 104 % of control | dose: 1.0 mg/kg/injection, schedule: Q01DX005 (ip), vehicle: water 94 % of control and 96 % of control (2×) | dose: 2.0 mg/kg/injection, schedule: Q01DX005 (ip), vehicle: Klucel (hydroxypropylcellulose) (HPC) 99 % of control | dose: 2.0 mg/kg/injection, schedule: Q01DX005 (ip), vehicle: saline 107 % of control and 112 % of control | dose: 2.0 mg/kg/injection, schedule: Q01DX005 (ip), vehicle: water 94 % of control and 100 % of control and 101 % of control | dose: 4.0 mg/kg/injection, schedule: Q01DX005 (ip), vehicle: Klucel (hydroxypropylcellulose) (HPC) 103 % of control | dose: 4.0 mg/kg/injection, schedule: Q01DX005 (ip), vehicle: saline 103 % of control | dose: 4.0 mg/kg/injection, schedule: Q01DX005 (ip), vehicle: water 96 % of control and 100 % of control and 108 % of control | [4] 106 % of control and 112 % of control | dose: 8.0 mg/kg/injection, schedule: Q01DX005 (ip), vehicle: water 100 % of control and 107 % of control and 112 % of control

Nc1nc2c(c(=O)[nH]1)N(C=O)C(CNc1ccc(C(=O)N[C@@H](CCC(=O)O)C(=O)O)cc1)CN2 (stereo partly specified)
inactive: dose: 128.0 mg/kg/injection, schedule: Q01DX005 (ip), vehicle: saline with Tween-80 101 % of control | [8] 104 % of control | dose: 150.0 mg/kg/injection, schedule: Q04DX003 (ip), vehicle: saline 104 % of control | dose: 256.0 mg/kg/injection, schedule: Q01DX005 (ip), vehicle: saline with Tween-80 96 % of control | dose: 256.0 mg/kg/injection, schedule: Q01DX005 (ip), vehicle: saline 98 % of control | dose: 300.0 mg/kg/injection, schedule: Q04DX003 (ip), vehicle: saline 115 % of control | dose: 512.0 mg/kg/injection, schedule: Q01DX005 (ip), vehicle: saline with Tween-80 101 % of control | dose: 512.0 mg/kg/injection, schedule: Q01DX005 (ip), vehicle: saline 96 % of control | dose: 600.0 mg/kg/injection, schedule: Q04DX003 (ip), vehicle: saline 101 % of control | dose: 1200.0 mg/kg/injection, schedule: Q04DX003 (ip), vehicle: saline 115 % of control

CN(CO)c1nc(N(C)CO)nc(N(C)CO)n1
inactive: dose: 0.78 mg/kg/injection, schedule: Q01DX005 (ip), vehicle: saline with Tween-80 98 % of control | dose: 1.56 mg/kg/injection, schedule: Q01DX005 (ip), vehicle: saline with Tween-80 100 % of control and 105 % of control | dose: 3.12 mg/kg/injection, schedule: Q01DX005 (ip), vehicle: saline with Tween-80 94 % of control and 105 % of control and 110 % of control | dose: 3.12 mg/kg/injection, schedule: Q01DX009 (ip), vehicle: Klucel (hydroxypropylcellulose) (HPC) 95 % of control and 120 % of control | dose: 4.0 mg/kg/injection, schedule: Q01DX005 (ip), vehicle: saline with Tween-80 98 % of control | dose: 6.25 mg/kg/injection, schedule: Q01DX009 (ip), vehicle: Klucel (hydroxypropylcellulose) (HPC) 96 % of control and 108 % of control and 111 % of control | dose: 8.0 mg/kg/injection, schedule: Q01DX005 (ip), vehicle: saline with Tween-80 89 % of control | dose: 12.5 mg/kg/injection, schedule: Q01DX009 (ip), vehicle: Klucel (hydroxypropylcellulose) (HPC) 93 % of control and 111 % of control | dose: 16.0 mg/kg/injection, schedule: Q01DX005 (ip), vehicle: saline with Tween-80 97 % of control | dose: 25.0 mg/kg/injection, schedule: Q01DX009 (ip), vehicle: Klucel (hydroxypropylcellulose) (HPC) 104 % of control and 114 % of control and 124 % of control | dose: 32.0 mg/kg/injection, schedule: Q01DX005 (ip), vehicle: saline with Tween-80 94 % of control | dose: 50.0 mg/kg/injection, schedule: Q01DX009 (ip), vehicle: Klucel (hydroxypropylcellulose) (HPC) 120 % of control | dose: 64.0 mg/kg/injection, schedule: Q01DX005 (ip), vehicle: saline with Tween-80 95 % of control | dose: 100.0 mg/kg/injection, schedule: Q01DX005 (ip), vehicle: saline with Tween-80 119 % of control

Nc1ccn(C2OC(COP(=O)(O)O)C(O)C2O)c(=O)n1 (stereo unspecified)
inactive: [5] 96 % of control | [6] 95 % of control | [7] 107 % of control | [8] 112 % of control
